#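 The compound was tested at five concentrations on cells cultured in 96-well plates, with a 48-hour exposure period. Definition used: TGI = concentration required for complete inhibition of growth.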
# Key:
# Assay in all cases: NCI-60 cell line screen, 48 h
# [1] = tested on: HCT-15 colon
# [2] = tested on: DMS 273 small cell lung
# [3] = tested on: SNB-75 CNS
# [4] = tested on: U251 CNS
# [5] = tested on: RXF-631 renal
# [6] = tested on: K-562 leukemia
# [7] = tested on: HL-60(TB) leukemia
# [8] = tested on: MOLT-4 leukemia
# [9] = tested on: HOP-92 NSCLC
# [10] = tested on: HOP-62 NSCLC
# [11] = tested on: NCI-H23 lung
# [12] = tested on: RPMI-8226 leukemia
# [13] = tested on: SK-OV-3 ovarian
# [14] = tested on: DLD-1 colon
# [15] = tested on: HT29 colon
# [16] = tested on: NCI-H226 lung
# [17] = tested on: SW-620 colon
# [18] = tested on: RXF 393 renal
# [19] = tested on: COLO 205 colon
# [20] = tested on: KM20L2 colon
# [21] = tested on: SR leukemia
# [22] = tested on: A498 renal
# [23] = tested on: LOX IMVI melanoma
# [24] = tested on: SNB-19 CNS
# [25] = tested on: TK-10 renal
# [26] = tested on: OVCAR-5 ovarian
# [27] = tested on: SN12C renal
# [28] = tested on: 786-0 renal
# [29] = tested on: SK-MEL-28 melanoma
# [30] = tested on: NCI-H522 lung
# [31] = tested on: OVCAR-8 ovarian
# [32] = tested on: HOP-18 NSCLC
# [33] = tested on: M14 melanoma
# [34] = tested on: UO-31 renal
# [35] = tested on: M19-MEL melanoma
# [36] = tested on: NCI-H460 lung
# [37] = tested on: OVCAR-3 ovarian
# [38] = tested on: KM12 colon
# [39] = tested on: CCRF-CEM leukemia
# [40] = tested on: OVCAR-4 ovarian
# [41] = tested on: SF-539 CNS
# [42] = tested on: IGROV1 ovarian
# [43] = tested on: SF-295 CNS
# [44] = tested on: SK-MEL-2 melanoma
# [45] = tested on: UACC-257 melanoma
# [46] = tested on: MALME-3M melanoma
# [47] = tested on: ACHN renal
# [48] = tested on: A549 NSCLC
# [49] = tested on: SK-MEL-5 melanoma
# [50] = tested on: LXFL 529 NSCLC
# [51] = tested on: HCC-2998 colon
# [52] = tested on: EKVX NSCLC
# [53] = tested on: XF 498 CNS
# [54] = tested on: UACC-62 melanoma
# [55] = tested on: SNB-78 CNS
# [56] = tested on: DMS 114 small cell lung
# [57] = tested on: HCT-116 colon
# [58] = tested on: SF-268 CNS
# [59] = tested on: CAKI-1 renal
structure (smiles),measurement,setting,value
COc1cc2c(cc1OC)C(N(C)C)C(c1ccccc1)=C2Cl (configuration not stated),TGI,[1],34.1 µM
same,TGI,[2],30.9 µM
same,TGI,[3],48.7 µM
same,TGI,[4],30.3 µM
same,TGI,[5],30.5 µM
same,TGI,[6],> 100 µM
same,TGI,[7],65.8 µM
same,TGI,[8],39.6 µM
same,TGI,[9],36.7 µM
same,TGI,[10],98.8 µM
same,TGI,[11],32.4 µM
same,TGI,[12],46.3 µM
same,TGI,[13],45.9 µM
same,TGI,[14],32.3 µM
same,TGI,[15],36.4 µM
same,TGI,[16],56.4 µM
same,TGI,[17],29.8 µM
same,TGI,[18],29.3 µM
same,TGI,[19],32.6 µM
same,TGI,[20],58.6 µM
same,TGI,[21],50.4 µM
same,TGI,[22],59.7 µM
same,TGI,[23],31.9 µM
same,TGI,[24],> 100 µM
same,TGI,[25],> 100 µM
same,TGI,[26],> 100 µM
same,TGI,[27],43.3 µM
same,TGI,[28],73.9 µM
same,TGI,[29],36 µM
same,TGI,[30],21.7 µM
same,TGI,[31],47.8 µM
same,TGI,[32],> 100 µM
same,TGI,[33],34.3 µM
same,TGI,[34],32 µM
same,TGI,[35],39.1 µM
same,TGI,[36],39.2 µM
same,TGI,[37],40.8 µM
same,TGI,[38],57.9 µM
same,TGI,[39],> 100 µM
same,TGI,[40],65 µM
same,TGI,[41],37.7 µM
same,TGI,[42],47.5 µM
same,TGI,[43],49.7 µM
same,TGI,[44],36 µM
same,TGI,[45],40.5 µM
C/C(=N/NC(N)=S)c1ccc2ccccc2c1,TGI,[46],> 100 µM
same,TGI,[1],> 100 µM
same,TGI,[47],> 100 µM
same,TGI,[2],90.9 µM
same,TGI,[3],96.3 µM
same,TGI,[4],80.4 µM
same,TGI,[7],> 100 µM
same,TGI,[8],> 100 µM
same,TGI,[9],> 100 µM
same,TGI,[10],> 100 µM
same,TGI,[11],> 100 µM
same,TGI,[13],51.6 µM
same,TGI,[14],> 100 µM
same,TGI,[15],72.4 µM
same,TGI,[48],> 100 µM
same,TGI,[16],> 100 µM
same,TGI,[17],> 100 µM
same,TGI,[18],81.8 µM
same,TGI,[19],41.9 µM
same,TGI,[20],80.4 µM
same,TGI,[49],> 100 µM
same,TGI,[21],> 100 µM
same,TGI,[22],> 100 µM
same,TGI,[23],> 100 µM
same,TGI,[24],> 100 µM
same,TGI,[25],> 100 µM
same,TGI,[26],86 µM
same,TGI,[50],> 100 µM
same,TGI,[51],34.9 µM
same,TGI,[27],> 100 µM
same,TGI,[29],> 100 µM
same,TGI,[30],41 µM
same,TGI,[31],> 100 µM
same,TGI,[33],79.1 µM
same,TGI,[52],37.3 µM
same,TGI,[35],> 100 µM
same,TGI,[36],78.1 µM
same,TGI,[53],> 100 µM
same,TGI,[37],> 100 µM
same,TGI,[54],28.6 µM
same,TGI,[38],> 100 µM
same,TGI,[39],> 100 µM
same,TGI,[55],> 100 µM
same,TGI,[40],> 100 µM
same,TGI,[41],44.4 µM
same,TGI,[42],> 100 µM
same,TGI,[43],> 100 µM
same,TGI,[44],51.1 µM
same,TGI,[56],49.9 µM
same,TGI,[57],78.4 µM
same,TGI,[58],> 100 µM
same,TGI,[45],> 100 µM
CC1CCCCc2nc3c(c(=O)n21)CCCC3 (configuration not stated),TGI,[46],> 100 µM
same,TGI,[1],> 100 µM
same,TGI,[47],> 100 µM
same,TGI,[2],> 100 µM
same,TGI,[3],> 100 µM
same,TGI,[4],> 100 µM
same,TGI,[5],> 100 µM
same,TGI,[6],> 100 µM
same,TGI,[8],> 100 µM
same,TGI,[9],> 100 µM
same,TGI,[10],> 100 µM
same,TGI,[11],> 100 µM
same,TGI,[13],> 100 µM
same,TGI,[14],> 100 µM
same,TGI,[15],> 100 µM
same,TGI,[48],> 100 µM
same,TGI,[16],> 100 µM
same,TGI,[17],> 100 µM
same,TGI,[19],> 100 µM
same,TGI,[20],> 100 µM
same,TGI,[23],> 100 µM
same,TGI,[24],> 100 µM
same,TGI,[25],> 100 µM
same,TGI,[26],> 100 µM
same,TGI,[50],> 100 µM
same,TGI,[51],> 100 µM
same,TGI,[27],> 100 µM
same,TGI,[28],> 100 µM
same,TGI,[29],> 100 µM
same,TGI,[30],> 100 µM
same,TGI,[31],> 100 µM
same,TGI,[33],> 100 µM
same,TGI,[34],> 100 µM
same,TGI,[35],> 100 µM
same,TGI,[36],> 100 µM
same,TGI,[53],> 100 µM
same,TGI,[37],> 100 µM
same,TGI,[54],> 100 µM
same,TGI,[38],> 100 µM
same,TGI,[55],> 100 µM
same,TGI,[40],> 100 µM
same,TGI,[41],> 100 µM
same,TGI,[42],> 100 µM
same,TGI,[43],> 100 µM
same,TGI,[44],> 100 µM
same,TGI,[57],> 100 µM
same,TGI,[59],> 100 µM
same,TGI,[58],> 100 µM
same,TGI,[45],> 100 µM
CC1=NOC(=O)/C1=C/c1ccccc1O,TGI,[46],> 100 µM
same,TGI,[1],> 100 µM
same,TGI,[47],> 100 µM
same,TGI,[2],> 100 µM
same,TGI,[3],> 100 µM
same,TGI,[4],> 100 µM
same,TGI,[5],> 100 µM
same,TGI,[6],> 100 µM
same,TGI,[7],> 100 µM
same,TGI,[8],> 100 µM
same,TGI,[9],> 100 µM
same,TGI,[10],> 100 µM
same,TGI,[11],> 100 µM
same,TGI,[13],> 100 µM
same,TGI,[14],> 100 µM
same,TGI,[15],> 100 µM
same,TGI,[48],> 100 µM
same,TGI,[16],> 100 µM
same,TGI,[17],73.9 µM
same,TGI,[19],> 100 µM
same,TGI,[20],> 100 µM
same,TGI,[49],> 100 µM
same,TGI,[21],> 100 µM
same,TGI,[23],> 100 µM
same,TGI,[24],> 100 µM
same,TGI,[25],> 100 µM
same,TGI,[26],> 100 µM
same,TGI,[50],> 100 µM
same,TGI,[51],> 100 µM
same,TGI,[27],> 100 µM
same,TGI,[28],> 100 µM
same,TGI,[29],> 100 µM
same,TGI,[30],> 100 µM
same,TGI,[31],> 100 µM
same,TGI,[32],> 100 µM
same,TGI,[33],> 100 µM
same,TGI,[34],> 100 µM
same,TGI,[52],> 100 µM
same,TGI,[35],> 100 µM
same,TGI,[36],> 100 µM
same,TGI,[53],> 100 µM
same,TGI,[37],> 100 µM
same,TGI,[54],> 100 µM
same,TGI,[38],> 100 µM
same,TGI,[39],> 100 µM
same,TGI,[55],> 100 µM
same,TGI,[40],> 100 µM
same,TGI,[41],> 100 µM
same,TGI,[42],> 100 µM
same,TGI,[43],> 100 µM
same,TGI,[44],> 100 µM
same,TGI,[56],> 100 µM
same,TGI,[57],> 100 µM
same,TGI,[59],> 100 µM
same,TGI,[58],> 100 µM
same,TGI,[45],> 100 µM
